According to US8088925B2, “Heteroaryl-carboxylic acid (sulfamoyl alkyl) amide-derivatives as factor Xa inhibitors” (priority 2005, dated 2012):

target: T1, human factor Xa (Homo sapiens, UniProt P00742); assay: Factor Xa assay (chromogenic, purified enzyme); format: biochemical; settings: inhibition constant for factor Xa; chromogenic substrate S-2765 140 μM, enzyme 0.5 nM, 25° C.; Ki=IC50/{1+(substrate concentration/Km)}; read-out: Ki (FXa)
T1 construct: human factor Xa; purchased Enzyme Research Laboratories, Inc; South Bend, Ind
T1 sequence (P00742 235-488 limits assumed): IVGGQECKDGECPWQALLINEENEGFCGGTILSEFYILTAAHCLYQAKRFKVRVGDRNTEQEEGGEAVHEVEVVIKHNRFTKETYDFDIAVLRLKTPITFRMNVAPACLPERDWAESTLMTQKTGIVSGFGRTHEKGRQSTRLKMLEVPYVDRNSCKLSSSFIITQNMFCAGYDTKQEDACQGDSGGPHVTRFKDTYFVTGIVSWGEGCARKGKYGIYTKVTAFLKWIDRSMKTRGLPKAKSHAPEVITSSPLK
T1 sequence (P00742 41-179 partner limits assumed): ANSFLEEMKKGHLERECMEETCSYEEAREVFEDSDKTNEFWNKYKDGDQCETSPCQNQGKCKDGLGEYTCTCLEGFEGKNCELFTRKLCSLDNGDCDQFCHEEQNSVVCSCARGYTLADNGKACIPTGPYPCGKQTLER
Method: Purified enzymes were used in chromogenic assays.
The assay was performed by pre-incubating the compound of formula I or Ia plus enzyme for 10 min. Then the assay was initiated by adding substrate to obtain a final volume of 100 μl. The initial velocity of chromogenic substrate hydrolysis was measured by the change in absorbance at 405 nm using a Bio-tek Instruments kinetic plate reader (Ceres UV900HDi) at 25° C. during the linear portion of the time course (usually 1.5 min after addition of substrate).

Compound	Ki
O=C(NCCS(=O)(=O)NC1CCN(C2CC2)CC1)c1ccc(Cl)s1 [Example 2, 5-Chloro-thiophene-2-carboxylic acid [2-(1-cyclopropyl-piperidin-4-ylsulfamoyl)-ethyl]-amide]	167 nM
O=C(NCCS(=O)(=O)NC1CCN(c2ccncc2)CC1)c1ccc(Cl)s1 [Example 5, 5-Chloro-thiophene-2-carboxylic acid [2-(3,4,5,6-tetrahydro-2H-[1,4′]bipyridinyl-4-ylsulfamoyl)-ethyl]-amide]	66 nM
CC(C)N1CCC(N(Cc2nccs2)S(=O)(=O)CCNC(=O)c2ccc(Cl)s2)CC1 [Example 23, 5-Chloro-thiophene-2-carboxylic acid {2-[(1-isopropyl-piperidin-4-yl)-thiazol-2-ylmethyl-sulfamoyl]-ethyl}-amide]	6 nM
CC(C)N1CCC(NS(=O)(=O)C(C)CNC(=O)c2ccc(Cl)s2)CC1 (racemic) [Example 26, 5-Chloro-thiophene-2-carboxylic acid [2-(1-isopropyl-piperidin-4-ylsulfamoyl)-propyl]-amide]	13 nM
CC(C)N1CCC(NS(=O)(=O)CC(C)(C)NC(=O)c2ccc(Cl)s2)CC1 [Example 28, 5-Chloro-thiophene-2-carboxylic acid [2-(1-isopropyl-piperidin-4-ylsulfamoyl)-1,1-dimethyl-ethyl]-amide]	3390 nM
CC(C)N1CCC(N(CC(N)=O)S(=O)(=O)CCNC(=O)c2ccc(Cl)s2)CC1 [Example 20, 5-Chloro-thiophene-2-carboxylic acid {2-[carbamoylmethyl-(1-isopropyl-piperidin-4-yl)-sulfamoyl]-ethyl}-amide]	3 nM
CC(C)N1CCC(NS(=O)(=O)CCNC(=O)c2cccc(Cl)c2)CC1 [Example 14, 3-Chloro-N-[2-(1-isopropyl-piperidin-4-ylsulfamoyl)-ethyl]-benzamide]	19600 nM
CC(C)N1CCC(N(Cc2cc(-c3ccc(Cl)s3)on2)S(=O)(=O)CCNC(=O)c2ccc(Cl)s2)CC1 [Example 32, 5-Chloro-thiophene-2-carboxylic acid {2-[[5-(5-chloro-thiophen-2-yl)-isoxazol-3-ylmethyl]-(1-isopropyl-piperidin-4-yl)-sulfamoyl]-ethyl}-amide]	6 nM
Cc1cc(CN(C2CCN(C(C)C)CC2)S(=O)(=O)CCNC(=O)c2ccc(Cl)s2)no1 [Example 21, 5-Chloro-thiophene-2-carboxylic acid {2-[(1-isopropyl-piperidin-4-yl)-(5-methyl-isoxazol-3-ylmethyl)-sulfamoyl]-ethyl}-amide]	4 nM
CC(C)N1CCC(NS(=O)(=O)CCNC(=O)c2ccc(Br)o2)CC1 [Example 11, 5-Bromo-furan-2-carboxylic acid [2-(1-isopropyl-piperidin-4-ylsulfamoyl)-ethyl]-amide]	3150 nM
CC(C)N1CC(NS(=O)(=O)CCNC(=O)c2ccc(Cl)s2)C1 [Example 7, 5-Chloro-thiophene-2-carboxylic acid [2-(1-isopropyl-azetidin-3-ylsulfamoyl)-ethyl]-amide]	7250 nM
CC(C)N1CCC(N(Cc2nnc(C3CC3)s2)S(=O)(=O)CCNC(=O)c2ccc(Cl)s2)CC1 [Example 33, 5-Chloro-thiophene-2-carboxylic acid {2-[(5-cyclopropyl-[1,3,4]thiadiazol-2-ylmethyl)-(1-isopropyl-piperidin-4-yl)-sulfamoyl]-ethyl}-amide]	6 nM
CC(C)N1CCC(N2C(=O)CC(CNC(=O)c3ccc(Cl)s3)S2(=O)=O)CC1 (racemic) [Example 31, 5-Chloro-thiophene-2-carboxylic acid [2-(1-isopropyl-piperidin-4-yl)-1,1,3-trioxo-1λ^6-isothiazolidin-5-ylmethyl]-amide]	32 nM

The remaining compounds from weak to strong by Ki, led by results:

Ki	Compound
20500 nM	O=C(NCCS(=O)(=O)NC1CNC1)c1ccc(Cl)s1 [Example 6, 5-Chloro-thiophene-2-carboxylic acid[2-(azetidin-3-ylsulfamoyl)-ethyl]-amide]
4470 nM	CC(C)N1CCC(NS(=O)(=O)CCNC(=O)c2ccc(Cl)cn2)CC1 [Example 13, 5-Chloro-pyridine-2-carboxylic acid [2-(1-isopropyl-piperidin-4-ylsulfamoyl)-ethyl]-amide]
1250 nM	CC(C)N1CCC(NS(=O)(=O)C[C@H](CO)NC(=O)c2ccc(Cl)s2)CC1 [Example 27, 5-Chloro-thiophene-2-carboxylic acid [(S)-1-hydroxymethyl-2-(1-isopropyl-piperidin-4-ylsulfamoyl)-ethyl]-amide]
1100 nM	O=C(NCCS(=O)(=O)NN1CCN(Cc2ccccc2)CC1)c1ccc(Cl)s1 [Example 8, 5-Chloro-thiophene-2-carboxylic acid [2-(4-benzyl-piperazin-1-ylsulfamoyl)-ethyl]-amide]
572 nM	CC(C)N1CCC(NS(=O)(=O)CCNC(=O)c2ccc(Cl)cc2)CC1 [Example 12, 4-Chloro-N-[2-(1-isopropyl-piperidin-4-ylsulfamoyl)-ethyl]-benzamide]
399 nM	CC(C)N1CCC(NS(=O)(=O)CCCNC(=O)c2ccc(Cl)s2)CC1 [Example 29, 5-Chloro-thiophene-2-carboxylic acid [3-(1-isopropyl-piperidin-4-ylsulfamoyl)-propyl]-amide]
259 nM	Cc1ccc(C(=O)NCCS(=O)(=O)NC2CCN(C(C)C)CC2)s1 [Example 10, 5-Methyl-thiophene-2-carboxylic acid [2-(1-isopropyl-piperidin-4-ylsulfamoyl)-ethyl]-amide]
15 nM	CC(C)N1CCC(N(CC(F)(F)F)S(=O)(=O)CCNC(=O)c2ccc(Cl)s2)CC1 [Example 4, 5-Chloro-thiophene-2-carboxylic acid {2-[(1-isopropyl-piperidin-4-yl)-(2,2,2-trifluoro-ethyl)-sulfamoyl]-ethyl}-amide]
10 nM	CC(C)N1CCC(NS(=O)(=O)CCNC(=O)c2ccc(Cl)s2)CC1 [Example 1, 5-Chloro-thiophene-2-carboxylic acid [2-(1-isopropyl-piperidin-4-ylsulfamoyl)-ethyl]-amide]
8 nM	CC(C)N1CCC(N(Cc2cccnc2)S(=O)(=O)CCNC(=O)c2ccc(Cl)s2)CC1 [Example 22, 5-Chloro-thiophene-2-carboxylic acid {2-[(1-isopropyl-piperidin-4-yl)-pyridin-3-ylmethyl-sulfamoyl]-ethyl}-amide]
7 nM	CC(C)N1CCC(N(C)S(=O)(=O)CCNC(=O)c2ccc(Cl)s2)CC1 [Example 3, 5-Chloro-thiophene-2-carboxylic acid {2-[(1-isopropyl-piperidin-4-yl)-methyl-sulfamoyl]-ethyl}-amide]
6 nM	CC(C)N1CCC(NS(=O)(=O)CCNC(=O)c2ccc(Br)s2)CC1 [Example 9, 5-Bromo-thiophene-2-carboxylic acid[2-(1-isopropyl-piperidin-4-ylsulfamoyl)-ethyl]-amide]
5 nM	CC(C)N1CCC(N(CC(=O)N2CCOCC2)S(=O)(=O)CCNC(=O)c2ccc(Cl)s2)CC1 [Example 19, 5-Chloro-thiophene-2-carboxylic acid {2-[(1-isopropyl-piperidin-4-yl)-(2-morpholin-4-yl-2-oxo-ethyl)-sulfamoyl]-ethyl}-amide]
5 nM	CC(C)N1CCC(N(CC(=O)N(C)C)S(=O)(=O)CCNC(=O)c2ccc(Cl)s2)CC1 [Example 18, 5-Chloro-thiophene-2-carboxylic acid {2-[dimethylcarbamoylmethyl-(1-isopropyl-piperidin-4-yl)-sulfamoyl]-ethyl}-amide]
5 nM	COCCN(C1CCN(C(C)C)CC1)S(=O)(=O)CCNC(=O)c1ccc(Cl)s1 [Example 15, 5-Chloro-thiophene-2-carboxylic acid {2-[(1-isopropyl-piperidin-4-yl)-(2-methoxy-ethyl)-sulfamoyl]-ethyl}-amide]
4 nM	CCCNC(=O)N(C1CCN(C(C)C)CC1)S(=O)(=O)CCNC(=O)c1ccc(Cl)s1 [Example 24, 5-Chloro-thiophene-2-carboxylic acid {2-[(1-isopropyl-piperidin-4-yl)-propylaminocarbonyl-sulfamoyl]-ethyl}-amide]
4 nM	CC(C)N1CCC(N(CCO)S(=O)(=O)CCNC(=O)c2ccc(Cl)s2)CC1 [Example 16, 5-Chloro-thiophene-2-carboxylic acid {2-[(2-hydroxy-ethyl)-(1-isopropyl-piperidin-4-yl)-sulfamoyl]-ethyl}-amide]
4 nM	CC(C)N1CCC(N(CCCO)S(=O)(=O)CCNC(=O)c2ccc(Cl)s2)CC1 [Example 17, 5-Chloro-thiophene-2-carboxylic acid {2-[(3-hydroxy-propyl)-(1-isopropyl-piperidin-4-yl)-sulfamoyl]-ethyl}-amide]
3 nM	CC(=O)N(C1CCN(C(C)C)CC1)S(=O)(=O)CCNC(=O)c1ccc(Cl)s1 [Example 25, 5-Chloro-thiophene-2-carboxylic acid {2-[acetyl-(1-isopropyl-piperidin-4-yl)-sulfamoyl]-ethyl}-amide]
